Laboratory results as given in ChEMBL document CHEMBL4610087, “Swinhopeptolides A and B: Cyclic Depsipeptides from the Sponge Theonella swinhoei That Inhibit Ras/Raf Interaction” (J Nat Prod, 2020).

Test: Inhibition of Ras-Raf (unknown origin) protein-protein interaction incubated for 4 hrs by cell based-BRET assay
Conditions: Homo sapiens

IC50	SMILES
8.5 µM	C/C=C(\NC(=O)[C@@H](CO)NC(=O)/C(C)=C/C=C/C(C)=C/C(C)CC)C(=O)N[C@H](C(=O)N[C@H](C(=O)N[C@H]1C(=O)N[C@H](COC)C(=O)NCC(=O)N[C@@H](C)C(=O)N(C)[C@@H]([C@@H](C)O)C(=O)N[C@H]([C@H](OC)c2ccc(O)cc2)C(=O)N2CCC[C@H]2C(=O)O[C@@H]1C(C)C)[C@@H](C)[C@@H](C)C(N)=O)[C@H](C)N (some centres not stated)
5.8 µM	C/C=C(\NC(=O)[C@@H](CO)NC(=O)[C@@](C)(O)[C@H](O)/C=C\C(C)=C\[C@H](C)CC)C(=O)N[C@H](C(=O)N[C@H](C(=O)N[C@H]1C(=O)N[C@H](COC)C(=O)NCC(=O)N[C@@H](C)C(=O)N(C)[C@@H]([C@@H](C)O)C(=O)N[C@H]([C@H](OC)c2ccc(O)cc2)C(=O)N2CCC[C@H]2C(=O)O[C@@H]1C(C)C)[C@@H](C)[C@@H](C)C(N)=O)[C@H](C)N
